Source: patent US20140315933A1, “CHEMICAL COMPOUNDS” (Pfizer Limited, priority 2013, published 2014)
Counter-ions that a name gives are not always drawn.

Target: T1, URAT-1 transporter (Homo sapiens, UniProt Q96S37)
T1 construct: expressed in transfected cells
Assay: URAT-1 inhibitor activity: [14C]-uric acid uptake into CHO-URAT1(L)GFP#8 (CHO#8) cells, scintillation proximity
Format: cell-based
How it was run: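 Scintillation proximity read-out of 30 nM (final) [14C]-uric acid uptake over three hours at room temperature in chloride-free HEPES buffer pH 7.4. Compounds, 0–10 μM final with 0.25% DMSO, were added 15 minutes before substrate; cells were a clonal CHO line with human URAT1(L)-eGFP, preincubated 1 hour in chloride buffer.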

T1 sequence (Q96S37 with tags, fused parts or gaps): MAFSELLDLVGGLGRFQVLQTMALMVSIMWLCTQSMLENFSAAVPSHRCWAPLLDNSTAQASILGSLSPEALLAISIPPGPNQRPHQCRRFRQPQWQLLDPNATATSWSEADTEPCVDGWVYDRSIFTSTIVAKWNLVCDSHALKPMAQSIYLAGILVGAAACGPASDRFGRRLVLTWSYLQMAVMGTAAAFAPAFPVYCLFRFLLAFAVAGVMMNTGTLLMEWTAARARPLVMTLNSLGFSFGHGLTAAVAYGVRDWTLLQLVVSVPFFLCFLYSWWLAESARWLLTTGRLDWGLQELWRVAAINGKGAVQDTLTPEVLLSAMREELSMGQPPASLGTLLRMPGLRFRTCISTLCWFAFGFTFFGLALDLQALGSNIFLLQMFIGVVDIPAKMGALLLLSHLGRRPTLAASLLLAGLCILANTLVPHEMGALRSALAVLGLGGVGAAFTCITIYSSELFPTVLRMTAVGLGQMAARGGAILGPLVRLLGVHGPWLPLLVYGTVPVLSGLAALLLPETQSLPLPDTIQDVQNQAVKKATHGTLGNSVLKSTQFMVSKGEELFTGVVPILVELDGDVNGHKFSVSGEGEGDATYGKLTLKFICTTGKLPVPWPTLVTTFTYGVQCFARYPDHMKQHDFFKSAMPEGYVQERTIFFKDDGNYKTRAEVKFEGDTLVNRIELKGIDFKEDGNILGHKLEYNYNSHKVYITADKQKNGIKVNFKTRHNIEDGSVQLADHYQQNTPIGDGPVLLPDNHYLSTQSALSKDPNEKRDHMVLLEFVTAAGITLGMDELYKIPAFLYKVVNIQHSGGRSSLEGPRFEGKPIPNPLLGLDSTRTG

SMILES | IC50
CCc1nc(C)ccc1Oc1ccc(S(=O)(=O)Nc2ncns2)cc1C#N [compound 276, trifluoroacetic acid salt] | > 10000 nM
COc1ccc(F)cc1Oc1ccc(S(=O)(=O)Nc2ncns2)cc1C#N [compound 277] | > 5430 nM
CC(C)Oc1ccccc1Oc1ccc(S(=O)(=O)Nc2ncns2)cc1C#N [compound 278] | 2740 nM
CCOc1ccc(Oc2ccc(S(=O)(=O)Nc3ncns3)cc2C#N)cc1 [compound 279] | > 10000 nM
CCOc1cccc(Oc2ccc(S(=O)(=O)Nc3ncns3)cc2C#N)c1 [compound 280] | 2290 nM
CCOc1ccccc1Oc1ccc(S(=O)(=O)Nc2ncns2)cc1C#N [compound 281] | 3250 nM
COc1ccc(F)c(Oc2ccc(S(=O)(=O)Nc3ncns3)cc2C#N)c1F [compound 282] | 1660 nM
COc1c(Cl)cccc1Oc1ccc(S(=O)(=O)Nc2ncns2)cc1C#N [compound 283] | > 8570 nM
COc1ccc(C)cc1Oc1ccc(S(=O)(=O)Nc2ncns2)cc1C#N [compound 284] | 2520 nM
COc1cc(C)ccc1Oc1ccc(S(=O)(=O)Nc2ncns2)cc1C#N [compound 285] | 5590 nM
COc1cc(F)ccc1Oc1ccc(S(=O)(=O)Nc2ncns2)cc1C#N [compound 286] | 1010 nM
COc1ccc(F)c(Oc2ccc(S(=O)(=O)Nc3ncns3)cc2C#N)c1 [compound 287] | 1440 nM
Cc1c(Oc2ccc(S(=O)(=O)Nc3ncns3)cc2C#N)ccc(F)c1F [compound 288] | 431 nM
COc1cc(F)cc(Oc2ccc(S(=O)(=O)Nc3ncns3)cc2C#N)c1 [compound 289] | 479 nM
COc1ccc(Oc2ccc(S(=O)(=O)Nc3ncns3)cc2C#N)c(Cl)c1 [compound 290] | 1100 nM
N#Cc1cc(S(=O)(=O)Nc2ncns2)ccc1Oc1cccc(Cl)c1 [compound 291] | 1130 nM
COc1cc(C)cc(Oc2ccc(S(=O)(=O)Nc3ncns3)cc2C#N)c1 [compound 292] | 1130 nM
COc1cccc(Oc2ccc(S(=O)(=O)Nc3ncns3)cc2C#N)c1C [compound 293] | > 6150 nM
N#Cc1cc(S(=O)(=O)Nc2ncns2)ccc1Oc1ccc(F)cc1 [compound 294] | 888 nM
CC(C)c1ncccc1Oc1cc(F)c(S(=O)(=O)Nc2nncs2)cc1Cl [compound 298] | 4390 nM
CCSc1ncccc1Oc1cc(F)c(S(=O)(=O)Nc2nncs2)cc1Cl [compound 304] | 1010 nM
CCc1ncccc1Oc1cc(F)c(S(=O)(=O)Nc2nncs2)cc1Cl [compound 307] | > 7190 nM
Cc1ccnc(C)c1Oc1cc(F)c(S(=O)(=O)Nc2nncs2)cc1Cl [compound 308] | > 10000 nM
Cc1cncc(Oc2cc(F)c(S(=O)(=O)Nc3nncs3)cc2Cl)c1 [compound 311] | 1100 nM
Cc1ccc(Oc2cc(F)c(S(=O)(=O)Nc3nncs3)cc2Cl)cc1 [compound 314] | > 10000 nM
O=S(=O)(Nc1nncs1)c1cc(Cl)c(Oc2cccc(Cl)c2)cc1F [compound 330] | 2390 nM

Now from value to compound:

IC50 | SMILES
478 nM | CC(C)Oc1ccc(F)cc1Oc1cc(F)c(S(=O)(=O)Nc2nncs2)cc1Cl [compound 295]
> 10000 nM | COc1cc(C#N)ccc1Oc1cc(F)c(S(=O)(=O)Nc2nncs2)cc1Cl [compound 296]
1010 nM | COc1cc(F)cc(Oc2cc(F)c(S(=O)(=O)Nc3nncs3)cc2Cl)c1 [compound 297]
4370 nM | COc1cc(C)ccc1Oc1cc(F)c(S(=O)(=O)Nc2nncs2)cc1Cl [compound 299]
329 nM | COc1ccc(C)cc1Oc1cc(F)c(S(=O)(=O)Nc2nncs2)cc1Cl [compound 300]
382 nM | COc1cc(C)cc(Oc2cc(F)c(S(=O)(=O)Nc3nncs3)cc2Cl)c1 [compound 301]
1060 nM | COc1cc(Cl)cc(Oc2cc(F)c(S(=O)(=O)Nc3nncs3)cc2Cl)c1 [compound 302]
> 1430 nM | COc1cccc(Cl)c1Oc1cc(F)c(S(=O)(=O)Nc2nncs2)cc1Cl [compound 303]
> 5780 nM | COc1ccccc1Oc1cc(F)c(S(=O)(=O)Nc2nncs2)cc1Cl [compound 305]
2410 nM | COc1cccc(Oc2cc(F)c(S(=O)(=O)Nc3nncs3)cc2Cl)c1 [compound 306]
> 10000 nM | COc1ccc(C#N)cc1Oc1cc(F)c(S(=O)(=O)Nc2nncs2)cc1Cl [compound 309]
864 nM | CSc1ncccc1Oc1cc(F)c(S(=O)(=O)Nc2nncs2)cc1Cl [compound 310]
> 6450 nM | COc1cc(F)ccc1Oc1cc(F)c(S(=O)(=O)Nc2nncs2)cc1Cl [compound 312]
3170 nM | Cc1ccncc1Oc1cc(F)c(S(=O)(=O)Nc2nncs2)cc1Cl [compound 313]
2180 nM | COc1ccc(F)c(Oc2cc(F)c(S(=O)(=O)Nc3nncs3)cc2Cl)c1 [compound 315]
> 10000 nM | COc1cc(C#N)c(F)cc1Oc1cc(F)c(S(=O)(=O)Nc2nncs2)cc1Cl [compound 316]

IC50 | SMILES
1630 nM | COc1ccc(Oc2cc(F)c(S(=O)(=O)Nc3nncs3)cc2Cl)c(Cl)c1 [compound 317]
145 nM | Cc1c(Oc2cc(F)c(S(=O)(=O)Nc3nncs3)cc2Cl)ccc(F)c1F [compound 318, 5-chloro-4-(3,4-difluoro-2-methylphenoxy)-2-fluoro-N-(1,3,4-thiadiazol-2-yl)benzenesulfonamide]
> 1710 nM | COc1c(Oc2cc(F)c(S(=O)(=O)Nc3nncs3)cc2Cl)ccc(F)c1C [compound 319]
> 7610 nM | COc1ccc(Oc2cc(F)c(S(=O)(=O)Nc3nncs3)cc2Cl)cc1Cl [compound 320]
275 nM | COc1cccc(C)c1Oc1cc(F)c(S(=O)(=O)Nc2nncs2)cc1Cl [compound 321]
2990 nM | Cc1cc(Oc2cc(F)c(S(=O)(=O)Nc3nncs3)cc2Cl)ccc1F [compound 322]
2170 nM | COc1cccc(Oc2cc(F)c(S(=O)(=O)Nc3nncs3)cc2Cl)c1C [compound 323]
3280 nM | COc1ccc(Oc2cc(F)c(S(=O)(=O)Nc3nncs3)cc2Cl)cc1F [compound 324]
2000 nM | CC(C)Oc1ccccc1Oc1cc(F)c(S(=O)(=O)Nc2nncs2)cc1Cl [compound 325]
369 nM | COc1ccc(Cl)c(Oc2cc(F)c(S(=O)(=O)Nc3nncs3)cc2Cl)c1 [compound 326]
619 nM | COc1ccc(C)c(Oc2cc(F)c(S(=O)(=O)Nc3nncs3)cc2Cl)c1 [compound 327]
> 830 nM | Cc1ccccc1Oc1cc(F)c(S(=O)(=O)Nc2nncs2)cc1Cl [compound 328]
606 nM | COc1c(F)ccc(Oc2cc(F)c(S(=O)(=O)Nc3nncs3)cc2Cl)c1Cl [compound 329]
> 6720 nM | CCOc1cc(C)ccc1Oc1cc(F)c(S(=O)(=O)Nc2nncs2)cc1Cl [compound 331]
> 2380 nM | O=S(=O)(Nc1nncs1)c1cc(Cl)c(Oc2c(F)cccc2Cl)cc1F [compound 332]
